From US20210395311A1, “CYCLIC PEPTIDE DIMERS” (New York University, priority 2019, published 2021)
Entries after “also recorded” stand apart in the source; their conditions may differ. Bridge positions count the residues as written; N and C are the ends. Ends that are not written are not given here. I, II: the chains in the order shown.

Assays:
[1] = Solubility of the synthetic peptides; type: physicochemical; conditions: 10% acetonitrile in water was used to dissolve
Text: It was synthesized separately. For 324822, protected linear peptide was cleaved from resin and cyclized in DMF following the above procedure. After removing the protecting groups, the peptide was isolated by RP-HPLC purification. […] 10% acetonitrile in water was used to dissolve the peptides.

[2] = tested on: B16F10 mouse melanoma cells; assay: CIF in vitro bioassay: contact inhibitory response of B16F10 cells to test samples; type: cell-based; conditions: for CIF activity of synthesized monomer and dimer: monomer and dimer separated by RP-HPLC, each separately bioassayed; for contact inhibition activity of cyclic peptide dimer isomers: peptides A-C unprotected, D-F with one Acm-protected Cys per ring
Text: Contact Inhibitory Factor is a Structurally Novel Endogenous Cyclic Decapeptide Dimer. Determining the Structure of the CIF Molecule—Overall Approach. Identifying the molecule responsible for restoring contact inhibition of growth to melanoma cells first required production of the CIF positive culture medium from the serum free AM cell line (SFAMCM), followed by column chromatography, electrophoresis and mass spectroscopy of this culture medium. Samples obtained after each procedure were evaluated for CIF activity with an in vitro bioassay (Bioassay described herein). Identification of CIF structure evolved in three stages: (1) the CIF active conditioned medium from the AM cells (SFAMCM) contained a single decapeptide; (2) the decapeptide is head-to-tail cyclic; (3) the complete bioactive CIF molecule is a dimer composed of identical disulfide linked cyclic decapeptides. An in vitro bioassay used to monitor and guide purification involved the contact inhibitory response of B16F10 mouse melanoma cells to test samples. The latter included (1) CIF-containing medium from both the AM and revertant FF cell lines; (2) all fractions derived from the AM medium during purification; (3) the synthetic CIF peptide. Results were evaluated independently by two investigators. Samples were graded from 0 to 4, where 0 indicated no activity and 4 indicated maximum activity. Only samples graded 3 or 4 by both investigators were selected for purification.
Bioassay. Preparation of Samples. Conditioned Culture Medium (SFFFCM) and (SFAMCM). The positive control was the CIF positive conditioned culture medium from the FF cell line, SFFFCM. The negative control was DMEM 10% FBS. 3.6 ml of the sample was pipetted into a sterile 15 ml tube and heat activated at 80° C.×10 mins (minutes). After cooling to room temperature 0.4 ml FBS was added to make the FBS concentration 10%. For different volumes of conditioned culture medium the appropriate volume of FBS was added to make the final FBS concentration 10%. Both SFFFCM and SFAMCM were lyophilized and stored in desiccator jars under vacuum at 3° C.
Lyophilized Samples. To prepare the SFFFCM and the SFAMCM for the bioassay they were reconstituted with DMEM, heat activated at 80° C.×10 mins and cooled to room temperature. Sufficient volume of FBS was added to make the final FBS concentration 10%. The final volume of the sample was at least 2 ml to ensure that there was enough material for refeeding the bioassay plates.
Dilution of Samples. The samples were tested at 1:1 (undiluted), 1:2 and 1:4. The dilutions were made with DMEM 10% FBS. Higher dilutions may be used as needed. Each well contained 0.2 ml of sample, including the positive and negative controls. Each sample was done in duplicate. The wells were refed with fresh sample after 48 hrs.
Setting up the Bioassay. Using a 96 well flat bottom plate, 0.2 ml sterile water was pipetted into all outside wells. 0.2 ml 10% DMEM containing 20,000 B16F10 cells were pipetted into each well for the bioassay. Each sample was done in duplicate, including positive and negative controls. […]. The plate was placed in a 37° C., 5% CO2 incubator for approximately 4 hours to allow for cells to attach and spread. The time for attachment may vary for other cell lines. After the cells had attached and spread, the DMEM was removed and replaced with 0.2 ml of sample, positive and negative controls. The wells were observed daily and scored for CIF activity. The wells were refed after 48 hours or as needed, 0.2 ml for weekdays, 0.3 ml for weekends.
Scoring for CIF Activity. The samples were scored for CIF activity as follows:
4+=All cells are contact inhibited, flattened with an elongated fibroblast-like morphology. 3+=Not all cells are contact inhibited, elongated or fibroblast-like. There are a few scattered clusters of dividing cells. 2+=Fewer contact Inhibited cells and more clusters of dividing cells. […]

Substance | contact inhibition activity of cyclic peptide dimer isomers [2] | also measured
c (Gly-Met-Met-Cys-Val-Thr-His-Cys-Asn-Gly (SEQ ID NO:1)) w/Cys-Cys bridge (cyclo(GMMCVTHCNG); disulfide 4-8 (inferred)) [compound 324822] |  | solubility in 100% aqueous solution [1]: not soluble
dimer: synthesized CIF dimer of two identical disulfide linked head-to-tail cyclic decapeptides (SEQ ID NO:1), peak at 2068 Da (cyclo(GMMCVTHCNG); also: disulfide-linked dimer of two identical cyclic peptides, Cys not given here) |  | CIF activity of synthesized monomer and dimer [2]: strongly positive; CIF activity of synthesized monomer and dimer ([2]; listed as synthetic dimer): CIF positive
monomer: synthetic head-to-tail cyclic decapeptide Gly-Met-Met-Cys-Val-Thr-His-Cys-Asn-Gly (SEQ ID NO:1), peak at 1034 Da (GMMCVTHCNG; head-to-tail cyclized) |  | CIF activity of synthesized monomer and dimer [2]: CIF negative
peptide A: two head-to-tail cyclized SEQ ID NO:1 peptides; Cys at position 8 disulfide bonded to Cys at position 8 of the second (chain 1 GMMCVTHCNG; chain 2 GMMCVTHCNG; disulfide I:8-II:8; cysteine pairing not given here; also: head-to-tail to a chain's N/C-terminus) | suitable contact inhibitors | 
peptide B: two head-to-tail cyclized SEQ ID NO:1 peptides; Cys at position 4 disulfide bonded to Cys at position 4 of the second (chain 1 GMMCVTHCNG; chain 2 GMMCVTHCNG; disulfide I:4-II:4; cysteine pairing not given here; also: head-to-tail to a chain's N/C-terminus) | suitable contact inhibitors | 
peptide C: two head-to-tail cyclized SEQ ID NO:1 peptides; Cys at position 8 disulfide bonded to Cys at position 4 of the second (chain 1 GMMCVTHCNG; chain 2 GMMCVTHCNG; disulfide I:8-II:4; cysteine pairing not given here; also: head-to-tail to a chain's N/C-terminus) | suitable contact inhibitors | 
peptide D: SEQ ID NO:1 head to tail cyclized, attached via a disulfide bond, one Cys on each sequence acetamidomethyl (Acm) protected (chain 1 GMMCVTHCNG; chain 2 GMMCVTHCNG; disulfide (positions not given here); also: one Cys per chain Acm-protected, which not given here, head-to-tail to a chain's N/C-terminus) | did not have activity; also recorded: not effective contact inhibitors | 
peptide E: SEQ ID NO:1 head to tail cyclized, attached via a disulfide bond, one Cys on each sequence acetamidomethyl (Acm) protected (chain 1 GMMCVTHCNG; chain 2 GMMCVTHCNG; disulfide (positions not given here); also: one Cys per chain Acm-protected, which not given here, head-to-tail to a chain's N/C-terminus) | did not have activity; also recorded: not effective contact inhibitors | 
peptide F: SEQ ID NO:1 head to tail cyclized, attached via a disulfide bond, one Cys on each sequence acetamidomethyl (Acm) protected (chain 1 GMMCVTHCNG; chain 2 GMMCVTHCNG; disulfide (positions not given here); also: one Cys per chain Acm-protected, position not given here, head-to-tail to a chain's N/C-terminus, head-to-tail to a chain's N/C-terminus) | did not have activity; also recorded: not effective contact inhibitors | 
